Patent US20240246951A1, “COMPOUND HAVING BIOLOGICAL ACTIVITY SUCH AS ANTIVIRAL ACTIVITY” (NATIONAL CENTER FOR GLOBAL HEALTH AND MEDICINE, priority 2021, published 2024)

System: SARS-CoV-2 variants (TX7-501, TY8-612, QHN001, K1734, K5356)
Assay type: cell-based
Settings: variants of Table 4 instead of WK-521; data not shown

SMILES: CC(C)(C)[C@H](NC(=O)C(F)(F)F)C(=O)N1C[C@H]2[C@@H]([C@H]1C(=O)N[C@@H](C[C@@H]1CCNC1=O)C(=O)c1nc3c(F)cccc3s1)C2(C)C [Compound 245, (1R,2S,5S)-3-((S)-3,3-dimethyl-2-(2,2,2-trifluoroacetamido)butanoyl)-N-((S)-1-(4-fluorobenzo[d]thiazol-2-yl)-1-oxo-3-((S)-2-oxopyrrolidin-3-yl)propan-2-yl)-6,6-dimethyl-3-azabicyclo[3.1.0]hexane-2-carboxamide]
- antiviral activity against variants: excellent antiviral activities
